US20070196421A1, “Soft tissue implants and drug combination compositions, and use thereof” (priority 2005, published 2007)

Legend:
JNK = JNK activation; assay type: cell-based
glucocorticoid receptor = glucocorticoid receptor trafficking (mechanism study); assay type: cell-based
[1] = system: GRE reporter plasmid in T cells; assay: transactivation of a transfected GRE reporter plasmid in T cells; assay type: cell-based
AP1 = AP1 activation; assay type: cell-based
p38 = p38 activation; assay type: cell-based
NFAT = NFAT activation, translocation and transactivation; assay type: cell-based
[2] = system: phosphatases of regenerating liver (PRL); conditions: cited from earlier work
[3] = molecular target: protein tyrosine phosphatase 1B (PTP1B) (Homo sapiens, UniProt P18031); conditions: cited from earlier work
endo-exonuclease = conditions: cited from earlier work
[4] = 200 mg/day orally; cited from earlier work
[5] = water; cited from earlier work
[6] = in vivo; cited from earlier work
[7] = system: AP-1 transcriptional activity; assay: IL-1 stimulated AP-1 transcriptional activity (AP-1 driven CAT reporter gene) in chondrocytes; assay type: cell-based; conditions: transfected chondrocytes, IL-1 50 ng/ml, 24 hours, paclitaxel 10^−7 to 10^−5 M
Description: Chondrocytes were transfected with constructs containing an AP-1 driven CAT reporter gene, and stimulated with IL-1, IL-1 (50 ng/ml) was added and incubated for 24 hours in the absence and presence of paclitaxel at various concentrations. […] The data noted with an asterisk (*) have significance compared with IL-1-induced CAT activity according to a t-test, P<0.05. The results shown are representative of three independent experiments.

stromelysin = assay: IL-1 induced stromelysin RNA levels in chondrocytes (FIG. 1D); assay type: cell-based; conditions: pretreatment
stromelysin (MMP-3) mRNA = assay: IL-1 induced stromelysin (MMP-3) mRNA expression in chondrocytes, Northern blot; conditions: 10^−5 M, 24 hours pretreatment, IL-1β 20 ng/ml
AP-1 = assay: IL-1 induced AP-1 binding activity in chondrocyte lysates (FIG. 1C); assay type: cell-based; conditions: lysates from chondrocytes pretreated with paclitaxel
collagenase (MMP-1) mRNA = assay: IL-1 induced collagenase (MMP-1) mRNA expression in chondrocytes, Northern blot; conditions: 10^−5 M, 24 hours pretreatment, IL-1β 20 ng/ml
collagenase = assay: IL-1 induced collagenase RNA levels in chondrocytes (FIG. 1D); assay type: cell-based; conditions: pretreatment
[8] = system: AP-1 DNA binding activity; assay: IL-1 induced AP-1 DNA binding activity, gel mobility shift assay of chondrocyte extracts; assay type: cell-based; conditions: chondrocyte lysates, pretreated 10^−7 to 10^−5 M for 24 hours, IL-1β 20 ng/ml
Description: Binding activity was assayed with a radiolabeled human AP-1 sequence probe and gel mobility shift assay. Extracts from chondrocytes untreated or treated with various amounts of paclitaxel (10^−7 to 10^−5 M) followed by IL-1β (20 ng/ml) were incubated with excess probe on ice for 30 minutes, followed by non-denaturing gel electrophoresis. The “com” lane contains excess unlabeled AP-1 oligonucleotide. The results shown are representative of three independent experiments.

eosinophil activation = conditions: cited from earlier work
mast cells = conditions: cited from earlier work
[9] = in vivo; cited from earlier work; remark: listed apart in the source
joint swelling = assay: chronic in vivo model of inflammation / chronic arthritis model; conditions: agent alone (prednisolone at reduced dose)
[10] = system: LPS-induced TNF-α production; assay: acute in vivo model of inflammation (LPS-induced TNF-α release); conditions: agent alone (prednisolone at reduced dose)
[11] = system: carrageenan-induced paw edema; assay: Rat carrageenan-induced paw edema model: paw swelling; assay type: in vivo; conditions: 2.26 mg/kg, local injection in paw at T-1 hr, Tmax = 6 hrs
Description: (§1) A dose-range finding study was performed to determine the anti-inflammatory activity of various ratios of methyl prednisolone acetate and amoxapine in a rat carrageenan-induced paw edema model. […] The molar ratio of methyl prednisolone acetate to amoxapine ranged from 1:1 to 1:300, using total doses of methyl prednisolone acetate of 0.01, 0.03 or 0.1 mg/kg.
(§2) The test agent (a combination of methyl prednisolone acetate and amoxapine), vehicle control, or reference agents (methyl prednisolone acetate, amoxapine, or Depo-Medrol®) were administered in the left hind foot pad of rats. After 60 minutes, paw edema was induced by injection of 100 μl of 1% carrageenan in the same foot pad. The paw volume was measured with a water displacement plethysmometer immediately prior to test agent injection (T−1h), at the time of carrageenan injection (T0h), and at T6h. Animals were euthanized by carbon dioxide inhalation. Paw tissue samples were collected and flash frozen in liquid nitrogen. Samples were assayed for TNF-α by enzyme-linked immunoassay (ELISA).

TNF-α = assay: Rat carrageenan-induced paw edema model: TNF-α in paw tissue by ELISA; assay type: in vivo; conditions: 2.26 mg/kg
Description: as §1, §2

NFkB = NFkB activation; assay type: cell-based
ERK = ERK activation; assay type: cell-based

Sequence of protein tyrosine phosphatase 1B (PTP1B) (P18031 whole entry): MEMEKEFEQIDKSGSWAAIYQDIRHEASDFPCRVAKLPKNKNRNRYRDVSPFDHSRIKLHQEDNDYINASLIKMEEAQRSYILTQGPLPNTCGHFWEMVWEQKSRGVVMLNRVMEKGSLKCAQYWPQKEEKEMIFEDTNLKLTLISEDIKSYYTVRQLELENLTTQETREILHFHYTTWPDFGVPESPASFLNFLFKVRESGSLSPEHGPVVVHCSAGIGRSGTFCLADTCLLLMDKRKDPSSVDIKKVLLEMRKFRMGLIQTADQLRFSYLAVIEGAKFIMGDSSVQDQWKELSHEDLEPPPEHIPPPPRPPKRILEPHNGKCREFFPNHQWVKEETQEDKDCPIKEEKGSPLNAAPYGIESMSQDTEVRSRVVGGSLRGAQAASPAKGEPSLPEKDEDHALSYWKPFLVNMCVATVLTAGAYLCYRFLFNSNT

Fc1ccc([C@@H]2CCNC[C@H]2COc2ccc3c(c2)OCO3)cc1 [paroxetine]
JNK activation (JNK): inhibition | glucocorticoid receptor trafficking (glucocorticoid receptor): does not promote | potentiation of prednisolone's ability to transactivate a GRE reporter plasmid [1]: does not promote glucocorticoid receptor trafficking or potentiate | AP1 activation (AP1): inhibits | p38 activation (p38): inhibition | NFAT activation, translocation and transactivation (NFAT): represses

N=C(N)c1ccc(OCCCCCOc2ccc(C(=N)N)cc2)cc1 [pentamidine]
inhibition of the oncogenic phosphatases of regenerating liver (PRL) [2]: potent inhibitor | inhibition of protein tyrosine phosphatase 1B (PTP1B) [3]: effective inhibitor | inhibition of the activity of endo-exonuclease (endo-exonuclease): inhibit

CC(=O)N1CCN(c2ccc(OCC3COC(Cn4ccnc4)(c4ccc(Cl)cc4Cl)O3)cc2)CC1 (centres unmarked) [ketoconazole]
serum concentration [4]: about 3.2 micrograms | solubility in water (in words) [5]: essentially insoluble

O=C(Nc1ccc([N+](=O)[O-])cc1Cl)c1cc(Cl)ccc1O [Niclosamide, niclosamide]
toxicity in mammals [6]: very low toxicity

CC(=O)O[C@H]1C(=O)[C@@]2(C)[C@H]([C@H](OC(=O)c3ccccc3)[C@]3(O)C[C@H](OC(=O)[C@H](O)[C@@H](NC(=O)c4ccccc4)c4ccccc4)C(C)=C1C3(C)C)[C@]1(OC(C)=O)CO[C@@H]1C[C@@H]2O [paclitaxel]
IL-1 induced AP-1 reporter gene CAT activity [7]: reduced IL-1 induced AP-1 reporter gene CAT activity | IL-1 induction of stromelysin RNA levels (stromelysin): can be inhibited | stromelysin mRNA level (stromelysin (MMP-3) mRNA): complete inhibition | IL-1 induced binding activity (AP-1): decreased | collagenase mRNA level (collagenase (MMP-1) mRNA): complete inhibition | IL-1 induction of collagenase RNA levels (collagenase): can be inhibited | IL-1 induced AP-1 binding activity [8]: decreased

CCOC(=O)N1CCC(=C2c3ccc(Cl)cc3CCc3cccnc32)CC1 [loratadine, Loratadine]
inhibition of eosinophil activation (eosinophil activation): inhibits | inhibition of mast cells (mast cells): inhibits

CN(C)/N=N/c1[nH]cnc1C(N)=O [Dacarbazine, dacarbazine]
absorption from the GI tract [9]: poorly absorbed

Clc1ccc2c(c1)C(N1CCNCC1)=Nc1ccccc1O2 [amoxapine]
JNK activation (JNK): Inhibition | effect of the single agents in the chronic model (joint swelling): modest or no benefit | glucocorticoid receptor trafficking (glucocorticoid receptor): does not promote | effect of the single agents in the acute / LPS model [10]: modest or no benefit | Edema ± SEM [11]: not significantly different from the vehicle treatment | Edema ± SEM ([11]; listed as Amoxapine): 38.1 ± 3.3% | potentiation of prednisolone's ability to transactivate a GRE reporter plasmid [1]: does not potentiate | AP1 activation (AP1): partially inhibits | p38 activation (p38): Inhibition | NFAT activation, translocation and transactivation (NFAT): block | TNF-α ± SEM (TNF-α): 32.6 ± 10.1 pg/g | NFkB activation (NFkB): partially inhibits | ERK activation (ERK): unaffected
